In patent publication US20110046108A1, “PYRIMIDINE DERIVATIVES” (AstraZeneca AB, priority 2006, published 2011):
pIC50: −log10 of the molar value. Like-named read-outs stand apart in the source and are kept apart here.

Legend:
recombinant EphB4 = target: T1, recombinant EphB4 (Homo sapiens, UniProt P54760); test: In vitro EphB4 enzyme assay (Assay A, Alphascreen); assay type: biochemical; conditions: 4 μM ATP
T1 construct: recombinant active EphB4 (amino acids 563-987; Swiss-Prot Acc; No. P54760); purchased ProQinase GmbH 0178-0000-3
T1 sequence (P54760 563-987): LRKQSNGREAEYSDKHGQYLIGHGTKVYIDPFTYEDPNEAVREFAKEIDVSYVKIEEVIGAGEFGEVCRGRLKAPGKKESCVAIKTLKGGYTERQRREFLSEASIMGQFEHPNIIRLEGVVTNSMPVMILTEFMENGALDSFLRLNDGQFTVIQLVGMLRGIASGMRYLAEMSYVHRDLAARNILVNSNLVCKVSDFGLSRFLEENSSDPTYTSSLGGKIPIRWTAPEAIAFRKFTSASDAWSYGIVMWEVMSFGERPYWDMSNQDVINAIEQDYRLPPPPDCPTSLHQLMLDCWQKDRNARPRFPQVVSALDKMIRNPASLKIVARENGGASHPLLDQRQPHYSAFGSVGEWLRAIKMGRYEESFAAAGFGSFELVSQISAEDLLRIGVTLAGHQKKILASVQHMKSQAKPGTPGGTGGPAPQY
Procedure: This assay detects inhibitors of EphB4-mediated phosphorylation of a polypeptide substrate using Alphascreen™ luminescence detection technology. Briefly, recombinant EphB4 was incubated with a biotinylated-polypeptide substrate (biotin-poly-GAT) in presence of magnesium-ATP. The reaction was stopped by addition of EDTA, together with streptavidin-coated donor beads which bind the biotin-substrate containing any phosphorylated tyrosine residues. Anti-phosphotyrosine antibodies present on acceptor beads bind to phosphorylated substrate, thus bringing the donor & acceptor beads into close proximity. Subsequent excitation of the donor beads at 680 nm generated singlet oxygen species that interact with a chemiluminescer on the acceptor beads, leading to light emission at 520-620 nm. The signal intensity is directly proportional to the level of substrate phosphorylation and thus inhibition is measured by a decrease in signal.
Test compounds were prepared as 10 mM stock solutions in DMSO (Sigma-Aldrich Company Ltd, Gillingham, Dorset SP8 4XT Catalogue No.154938) and serially diluted with 5% DMSO to give a range of test concentrations at 6× the required final concentration. […]
The resulting assay signal was determined on the Perkin Elmer EnVision plate reader. […]

c-Src kinase = target: T2, c-Src kinase (Homo sapiens, UniProt P12931); test: Src in vitro enzyme assay (Assay C, ELISA); assay type: biochemical; conditions: 2.2 μM ATP
T2 construct: purchased Upstate 14-117
T2 sequence (P12931 whole entry): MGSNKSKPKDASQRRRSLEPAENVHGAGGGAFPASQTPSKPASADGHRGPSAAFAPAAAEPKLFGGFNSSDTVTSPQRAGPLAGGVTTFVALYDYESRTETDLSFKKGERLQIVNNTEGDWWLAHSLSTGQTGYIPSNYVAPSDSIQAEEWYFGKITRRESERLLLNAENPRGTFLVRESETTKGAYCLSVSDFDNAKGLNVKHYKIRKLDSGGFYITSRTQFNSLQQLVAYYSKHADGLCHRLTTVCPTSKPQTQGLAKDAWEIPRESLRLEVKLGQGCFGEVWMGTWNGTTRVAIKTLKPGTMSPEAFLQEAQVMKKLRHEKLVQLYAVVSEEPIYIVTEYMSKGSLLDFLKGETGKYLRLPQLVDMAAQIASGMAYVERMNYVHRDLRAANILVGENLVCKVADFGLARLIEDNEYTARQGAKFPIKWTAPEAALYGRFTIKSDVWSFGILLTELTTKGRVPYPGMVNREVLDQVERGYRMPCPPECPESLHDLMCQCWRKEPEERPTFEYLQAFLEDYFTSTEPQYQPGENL
Procedure: The ability of test compounds to inhibit the phosphorylation of a tyrosine containing polypeptide substrate by the enzyme c-Src kinase was assessed using a conventional ELISA assay with a colorimetric endpoint.
Each well of Matrix 384-well plates (Matrix, Brooke Park, Wilmslow, Cheshire, SK9 3LP, UK, Catalogue No. 4311) were coated overnight at 4° C. with 40 μl of 10 ug/ml stock of synthetic polyamino acid pEAY substrate (Sigma-Aldrich Company Ltd, Gillingham, Dorset, SP8 4XT, UK, Catalogue No. P3899) in phosphate buffered saline (PBS). Immediately prior to the assay, the plates were washed with 100 μl/well of PBS containing Tween-20 and then with 50 mM HEPES pH7.4.
Test compounds were prepared as 10 mM stock solutions in DMSO (Sigma-Aldrich Company Ltd, Gillingham, Dorset, SP8 4XT, UK, Catalogue No.154938) and serially diluted with 10% DMSO to give a range of test concentrations at 4× the required final concentration. […]
The plates were washed three times with 100 μl/well of PBS-Tween20 and then 40 μl of a PBS-Tween20 and 0.5% BSA solution containing 4G10-HRP anti-phosphotyrosine antibody (Upstate, Catalogue No 16-105) added to each well. […] The reaction was then stopped with the addition of 20 μl/well 2M sulphuric acid and the absorbances determined at 450 nm using a plate reading spectrophotometer. […]

EphB4 = target: T3, EphB4 (Homo sapiens, UniProt P54760); test: In vitro EphB4 cell assay (Assay B, EphB4 phosphorylation ELISA in EphB4-CHO cells); assay type: cell-based; conditions: for IC50: mean values, Table A, read-out: Mean IC50 (μM) obtained using Assay B
T3 construct: to generate full-length EphB4 containing a Myc-His tag at the C-terminus; expressed in transfected cells; host or cells: CHO-K1 (EphB4-CHO)
T3 sequence (P54760 16-987): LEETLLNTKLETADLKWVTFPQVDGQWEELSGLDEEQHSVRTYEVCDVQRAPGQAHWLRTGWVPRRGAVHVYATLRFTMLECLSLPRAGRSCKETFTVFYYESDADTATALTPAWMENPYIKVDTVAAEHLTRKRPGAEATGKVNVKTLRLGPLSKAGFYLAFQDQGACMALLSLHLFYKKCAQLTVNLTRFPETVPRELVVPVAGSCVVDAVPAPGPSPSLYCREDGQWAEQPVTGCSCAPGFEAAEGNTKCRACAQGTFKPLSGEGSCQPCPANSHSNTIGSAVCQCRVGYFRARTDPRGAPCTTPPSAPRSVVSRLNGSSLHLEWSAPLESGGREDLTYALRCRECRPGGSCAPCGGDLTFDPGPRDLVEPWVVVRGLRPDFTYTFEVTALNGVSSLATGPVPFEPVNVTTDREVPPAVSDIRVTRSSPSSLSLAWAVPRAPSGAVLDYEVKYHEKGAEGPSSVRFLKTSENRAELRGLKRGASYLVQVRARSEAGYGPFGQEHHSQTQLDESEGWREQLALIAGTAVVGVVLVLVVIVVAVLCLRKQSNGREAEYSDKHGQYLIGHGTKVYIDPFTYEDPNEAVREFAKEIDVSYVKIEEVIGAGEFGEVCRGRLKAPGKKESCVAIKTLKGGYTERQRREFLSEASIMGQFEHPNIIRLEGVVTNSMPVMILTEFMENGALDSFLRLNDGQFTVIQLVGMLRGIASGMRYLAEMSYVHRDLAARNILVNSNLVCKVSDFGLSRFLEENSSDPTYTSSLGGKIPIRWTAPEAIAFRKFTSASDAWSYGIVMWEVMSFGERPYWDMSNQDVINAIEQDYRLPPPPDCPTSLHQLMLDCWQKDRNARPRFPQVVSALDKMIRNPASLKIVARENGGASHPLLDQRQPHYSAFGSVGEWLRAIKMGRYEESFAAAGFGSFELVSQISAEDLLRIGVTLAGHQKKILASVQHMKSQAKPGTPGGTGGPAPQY

Compound	IC50 (EphB4)	also measured
Clc1ccc2c(c1Nc1ccnc(Nc3ccc4ncsc4c3)n1)OCO2 [Compound 59, N~2~-1,3-benzothiazol-6-yl-N~4~-(5-chloro-1,3-benzodioxol-4-yl)pyrimidine-2,4-diamine]	–	pIC50 (recombinant EphB4): 6.34; pIC50 (c-Src kinase): 6.48; pIC50 (EphB4; ephrin-B2 stimulated EphB4 phosphorylation, read-out: IC50 in assay B): 5.90
COc1cc(Nc2nccc(Nc3cccc4c3OCO4)n2)cc(OC)c1 [Compound 258, N′-benzo[1,3]dioxol-4-yl-N-(3,5-dimethoxyphenyl) pyrimidine-2,4-diamine]	1.08 µM	–
CC(=O)Nc1cc(Nc2nccc(Nc3cccc4[nH]ncc34)n2)ccc1C [Compound 293, N-[5-[[4-(1H-indazol-4-ylamino)pyrimidin-2-yl]amino]-2-methyl-phcnyl] acetamide]	0.23 µM	–

The next lines start with results.

IC50 (EphB4)	Compound	also measured
0.14 µM	CN(c1ccnc(Nc2cccc(NS(C)(=O)=O)c2)n1)c1c(Cl)ccc2c1OCO2 [Compound 219, N-[3-[[4-[(5-chlorobenzo [1,3]dioxol-4-yl)-methyl-amino]pyrimidin-2-yl]amino]phenyl]methane sulfonamide]	–
0.19 µM	CS(=O)(=O)Nc1cccc(Nc2nccc(N(CC#N)c3c(Cl)ccc4c3OCO4)n2)c1 [Compound 227]	–
0.13 µM	N#Cc1cccc(Nc2nccc(N(CCO)c3c(Cl)ccc4c3OCO4)n2)c1 [Compound 241, 3-[[4-[(5-chlorobenzo [1,3]dioxol-4-yl)-(2-hydroxyethyl)amino]pyrimidin-2-yl]amino] benzonitrile]	–
